In paper PMC3939009, “Thrombin inhibitory activity of some polyphenolic compounds” (Medicinal Chemistry Research, 2013):
Where two headings read alike, the source gives them in different places.

Experiments:
[1] = tested on: human thrombin; assay: Thrombin-induced platelet aggregation (turbidimetric); assay type: cell-based; details: compound 50 μM preincubated with thrombin
Method: Blood samples in 0.32 % sodium citrate from healthy volunteers without cardiovascular disorders were collected, untreated with antiplatelet drugs. […] Platelets were isolated from PRP using BSA–Sepharose 2B gel filtration method according to Walkowiak et al. ([2000]). […] In these preparations, to nine volumes of thrombin one volume of polyphenolic compounds was added (final thrombin concentration was 15.8 nM). All tested compounds were dissolved in 50 % DMSO to the initial concentration of 10 mM; other solutions of compounds were also prepared in 50 % DMSO (prepared in 50 mM TBS, pH 7.4). […] The platelet aggregation was measured by turbidimetric method (Saluk-Juszczak et al., [2007]) using dual-channel Chrono-log optical aggregometer (Chronolog, USA). […] Platelet suspensions were pre-warmed at 37 °C with stirring.

[2] = design: method as in Mozzicafreddo et al. ([2006]); details: ref Mozzicafreddo et al. ([2006]); cited from earlier work
[3] = target: T1, human thrombin (Homo sapiens, UniProt P00734); assay: BIAcore (SPR) analysis of binding to immobilized thrombin; design: Thrombin, also known as an active plasma coagulation factor II; purchased Sigma-Aldrich Chemical Co. (St. Louis, MO, USA) T7009
Method: The biosensor assays were performed using the BIAcore 1000 biosensor system. All biosensor analyses were performed with a phosphate-buffered saline (PBS), pH 7.4, as a running buffer. […] The immobilization of thrombin on a biosensor carboxylmethyl dextran surface was performed according to the BIA applications Handbook (BIAcore, [1994]). The process of protein immobilization was performed on a sensor chip CM5 surface by the positively charged functional groups of protein amino acids. The immobilization process consisted of four steps: preconcentration, activation, ligand immobilization and deactivation of the residual NHS esters. […] The temperature during the whole experiment was also constant and was set to 25.0 °C. […] Each of these solutions (10 μl) was injected into an empty sensor chip channel. […] The amount of injected activation mixture was modified, to regulate the amount of immobilized ligand. […] The conditions of the latter experiments were established by numerous pre-tests. The assessed parameters included: the buffer flow rate, the volume of analyte injection, the concentration of analytes, types and concentration of regenerators. […] For each injection of analyte solution, the volume used was 100 μl. After injection of analyte was completed, the dissociation step occurred and the level of the interaction ligand-analyte was measured. During dissociation, the particles non-covalently bound to the ligand were washed out from the working channel. […] To do these calculations, the formulas presented below were used: the association rate […]]; the dissociation rate -d[AB]/dt=kd·[AB]; the equilibrium constants: KA=[AB]/[A]·[B]=ka/kd KD=[A]·[B]/[AB]=kd/ka.

[4] = target: T1, human thrombin; assay: Amidolytic activity of thrombin (hydrolysis of chromogenic substrate D-Phe-Pip-Arg-pNA); assay type: biochemical; design: Thrombin, also known as an active plasma coagulation factor II; purchased Sigma-Aldrich Chemical Co. (St. Louis, MO, USA) T7009; host or cells: purified from human plasma; details: at 375 μM substrate concentration; compounds 0.1–1,000 μM, preincubation 10 min 37 °C; read-out: IC50, amidolytic activity of human thrombin
Method: (§1) All tested compounds were dissolved in 50 % DMSO to the initial concentration of 10 mM; other solutions of compounds were also prepared in 50 % DMSO (prepared in 50 mM TBS, pH 7.4). The final concentration of DMSO in thrombin samples was 5 %. To prepare thrombin control samples, the same volume of solvent (50 % DMSO prepared in 50 mM TBS, pH 7.4) was added as in the case of the compound volume and warmed for 10 min to 37 °C.
To each reaction well, 40 μl of 3 mM chromogenic substrate was added. To initiate the chromogenic reaction, 280 μl of control thrombin (without tested compounds) or thrombin after preincubation with a polyphenolic compound to every reaction well in the same moment was added. The absorbance value was monitored every 12 s for 10 min. The maximal velocity of the reaction (V max, Δm OD/min) for each absorbance curve was determined. IC50 value (parameter) for every polyphenolic compound from inhibition curves was estimated.

[5] = target: T1, human thrombin; assay: SDS-PAGE analysis of thrombin-induced cross-linked fibrin formation; assay type: biochemical; design: Thrombin, also known as an active plasma coagulation factor II; purchased Sigma-Aldrich Chemical Co. (St. Louis, MO, USA) T7009; host or cells: purified from human plasma
Method: as §1, with “In these preparations, to nine volumes of thrombin one volume of polyphenolic compounds was added (final thrombin concentration was 15.8 nM). All” for “All”
The reactions incubated at 37 °C were stopped after 5, 15 and 30 min by adding 150 μl of lysis buffer (0.125 M Tris/HCl, 4 % SDS, 8 M urea, 10 % β-mercaptoethanol, pH 6.8). Samples were subjected to SDS-PAGE (polyacrylamide concentration—7.5 %) using Mini-Protean Electrophoresis Cell (Bio-Rad, Hercules, CA). Proteins were stained with Coomassie Brilliant Blue R250 (CBB).

For `O=c1c(O)c(-c2ccc(O)c(O)c2)oc2cc(O)cc(O)c12` [Quercetin, quercetin], the “Platelet aggregation, % of control” value [1] is listed as 4%, the “Concentration with anti-clotting effect (prolonged thrombin time)” value [2] is listed as no less than 100 µM and the “K A, equilibrium association constant” value [3] is listed as 2.59 × 10^7 M^–1. For the same molecule, the “K A, equilibrium association constant” value ([3]; 5 sensorgrams, 50 to 1,000 μM) was 2.59e+07 M⁻¹, the Kd ([3]; 5 sensorgrams, 50 to 1,000 μM, read-out: K D, equilibrium dissociation constant) was 38.7 nM and the kon ([3]; 5 sensorgrams, 50 to 1,000 μM, read-out: k a, association rate) was 43.2 M⁻¹ s⁻¹. The koff ([3]; 5 sensorgrams, 50 to 1,000 μM, read-out: k d, dissociation rate) was 1.67e-06 s⁻¹, the “Response (RU)” value ([3]; analyte 1,000 μM, thrombin immobilized on CM5 chip) was 1,882 RU and the IC50 [4] was 1500 nM. For the same molecule, the “Effect on formation of γ–γ chains and α-polymers” value ([5]; at IC50 concentration of amidolytic inhibition: cyanidin […], quercetin 1.5 μM) was “also inhibited the formation of γ–γ chains and α-polymers” and the “Effect on formation of γ–γ chains and α-polymers” value ([5]; ten times IC50: cyanidin […], quercetin 15 μM, silybin 250 μM) was “significantly inhibited the formation of γ–γ chains and α-polymers”.
